Test results from publication PMC6325233, “A Novel Actin Binding Drug with In Vivo Efficacy” (Antimicrobial Agents and Chemotherapy, 2018).
Entries after “also recorded” stand apart in the source; their conditions may differ.

Key:
[1] = tested on: Candida albicans 23512; experiment: MIC susceptibility testing (fluconazole-resistant strain); type: cell-based; parameters: key to MIC, 50% inhibition: -: indicates absence of isolates with 50% inhibition endpoint; conditions: CLSI M27-A3
Method: Occidiofungin was purified from a liquid culture of Burkholderia contaminans MS14 as previously described ([21]). MIC susceptibility testing was performed according to the CLSI M27-A3 and M38-A2 standards for the susceptibility testing of yeasts and filamentous fungi, respectively. S. cerevisiae deletion mutants were obtained from the commercially available BY4741 deletion library (Thermo Scientific).

[2] = molecular target: T1, rabbit skeletal muscle F-actin (Oryctolagus cuniculus, UniProt P68135); experiment: Cosedimentation assay; type: binding; conditions: F-actin 200 nM, Langmuir fit
T1 construct: Purified rabbit skeletal muscle filamentous actin (catalog number AKF99); purchased Cytoskeleton, Inc. AKF99; host or cells: rabbit skeletal muscle (tissue-purified)
Method: Purified rabbit skeletal muscle filamentous actin (catalog number AKF99) and G-actin (catalog number AKL95) were purchased from Cytoskeleton, Inc. Actin was reconstituted in Milli-Q water to achieve a stock concentration of 0.4 mg/ml in a buffer that consisted of 5 mM Tris-HCl (pH 8.0), 0.2 mM CaCl2, 0.2 mM ATP, 2 mM MgCl2, and 5% (wt/vol) sucrose as directed by the supplier. This solution was stored at −80°C in 50-μl aliquots until use. Immediately before use, each aliquot was thawed by placing it in a 37°C water bath for 5 min and then at room temperature. For all studies, 24 μg of F- or G-actin was used with 8 μg alkyne-OF. F-actin filaments were reacted with native occidiofungin for 15 min at room temperature at molar ratios of 1:10 (24 μg actin to 8 μg native occidiofungin) and 1:5 (24 μg actin to 4 μg native occidiofungin). As per the manufacturer’s instructions, Acti-stain 670 phalloidin (Cytoskeleton, Inc.) was used as a control in an in vitro actin filament binding study. Actin filaments treated with DMSO (solvent blank negative control) were stained and observed for comparison. […]
The reaction buffer for F-actin (200 nM) and occidiofungin in the cosedimentation study consisted of 5 mM Tris-HCl (pH 8.0), 0.2 mM ATP, and 2 mM MgCl2. […] A TSQ Quantum access triple quadrupole mass spectrometer was used to quantify the amount of occidiofungin within each sample. […]

[3] = tested on: F-actin; experiment: Actin polymerization and depolymerization assays; type: biochemical; conditions: 20 μg occidiofungin in 20 μL of 1.5% β-cyclodextrin in PBS, pyrene actin
[4] = tested on: Schizosaccharomyces pombe; experiment: Intracellular localization and competition, fluorescence microscopy; type: cell-based; conditions: pretreatment with 1× MIC native occidiofungin
Method: S. pombe and S. cerevisiae cells (OD600 of 0.6 to 0.8) were incubated with 1× MIC of alkyne-OF at 30°C, with samples removed at 10, 30, and 60 min postincubation. The cells were washed in PBS and fixed with 3.7% formaldehyde. The cells were permeabilized by adding 0.5% Triton X-100. The cells were washed with PBS before the Click reaction with azide-derivatized Alexa Fluor 488 (Click-iT EdU imaging kit; Thermo Fisher Scientific). The cells were visualized with an Olympus FV1000 confocal microscope. A competition assay was carried out by pretreating cells with 1× MIC of the native occidiofungin followed by treatment with alkyne-OF. […] A 6.6 µM concentration of tetramethyl rhodamine isothiocyanate (TRITC)-tagged phalloidin was added to formaldehyde-fixed cells (permeabilized with 0.2% Triton X-100) for 30 min at room temperature. The cells were washed in PBS, added to a concanavalin A-treated glass slides, and overlaid with Vectashield plus DAPI. Images were viewed using a Nikon 50i fluorescence microscope with a 100× oil immersion objective and Texas Red and DAPI filter sets. Random images were captured using a Retiga EXi black and white charge-coupled-device (CCD) camera and Image Q software. All images were captured using the same exposure settings, with the image contrast altered postcapture using CorelDraw.

[5] = Murine model of vulvovaginal candidiasis, tolerability; type: in vivo, BALB/c mice
Method: The murine model of vulvovaginal candidiasis has been reported ([59]). A variation of this method was used. Three groups of six mice were used to evaluate two concentrations of occidiofungin (100 μg and 50 μg) and vehicle control (0.3% Noble agar). Briefly, 6- to 8-week-old BALB/c mice were treated subcutaneously with 200 ng per mouse of β-estradiol 17-valerate 3 days prior to inoculation with C. albicans (day −3). A subcutaneous dose of estradiol was administered every 3 days (day 0 [D0] and D3) until the end of the experiment to induce pseudoestrus. Intravaginal inoculations of approximately 20 μl of 2.5 × 10^6 CFU/ml of C. albicans were performed on D0 of the VVC study. On the same day of inoculation (D0), another subcutaneous injection of estradiol was made. A lyophilized powder of occidiofungin containing either 100 μg or 50 μg of occidiofungin was suspended in 20 μl of warm 0.3% Noble agar before the intravaginal inoculations. Drug treatments were performed on D2, D3, and D4 of the study. On day 5 (D5), the vaginal lumen was lavaged with 100 μl of sterile PBS with a 200-µl pipette tip. Serial dilutions and total CFU per vaginal lavage were determined by plating on YPD plates containing 50 μg/ml of chloramphenicol. Body weights, signs of vaginal irritation such as swelling or bleeding, and clinical signs of discomfort (stereotypical stretching behavior) were monitored. Statistical analyses (t tests) were performed to compare the control group to the treated groups and to compare differences between treated groups. All the analyses were 2 sided, with a P value of <0.05 considered statistically significant.

[6] = intravaginal 100 and 50 µg, once per day for 3 days

With occidiofungin the “MIC, 50% inhibition” value ([1]; 24 hours) was “-”, the “MIC, 100% inhibition” value ([1]; 24 hours) was 1 µg/mL and the “MIC, 50% inhibition” value ([1]; 48 hours) was “-”. For the same substance, the “MIC, 100% inhibition” value ([1]; 48 hours) was 2 µg/mL, the “saturation of binding, stoichiometry ligand : actin monomer” value [2] was 24 and the Kd ([2]; occidiofungin 25 to 25,600 nM, pH 8.0, room temperature, 30 min, LC-MS quantification, read-out: estimated macroscopic dissociation constant (Kd)) was 1 µM. For the same substance, the “effect on polymerization or depolymerization of F-actin” value [3] was “no effect on the polymerization or depolymerization properties of F-actin”, the “competition with alkyne-OF localization” value [4] was “the observed cellular localization patterns disappeared; also recorded: does not bind” and the “behavioral changes (sluggishness, stretching, reluctance to consume food)” value [5, 6] was “No behavioral changes”. The “vaginal bleeding or swelling” value [5, 6] was “no vaginal bleeding or swelling was observed” and the signs of toxicity ([5]; treatment of murine vulvovaginal candidiasis) was “without any signs of toxicity”.
